# Results from PMC7914639, “Antioxidant, Pancreatic Lipase Inhibitory, and Tyrosinase Inhibitory Activities of Extracts of the Invasive Plant Spartina anglica (Cord-Grass)” (Antioxidants, 2021).
# Experiments:
# [1] = ABTS radical-scavenging assay; conditions: for ABTS Radical Scavenging (%): Table S4; for IC50: read-out: Radical Scavenging Activity Against ABTS IC50
# Experimental: ABTS radical-scavenging activity was measured using a modified method of Re et al.. The ABTS stock solution was diluted in water to a concentration of 7.4 mM. The ABTS radical was produced by mixing ABTS stock solution with 2.45 mM potassium persulfate and incubating in dark for 12 h at room temperature. The ABTS solution was diluted with ethanol to obtain an absorbance (Ablank) of 0.70 ± 0.02 at 415 nm. After adding 95 μL of diluted ABTS solution to 5 μL of the sample, the mixture was incubated at room temperature for 15 min in dark. The absorbance (Asample) at 415 nm was measured using a microplate reader (Model Infinite M200 PRO; Tecan, Austria). The blank was prepared using the same procedure with deionized water instead of the sample. The ABTS radical scavenging activity was calculated as a percentage using the Equation (2) ABTS radical scavenging activity (%) = [1 − (Asample/Ablank)] × 100(2)
# [2] = DPPH free radical-scavenging activity; conditions: for DPPH Radical Scavenging (%): Table S3; for IC50: read-out: Radical-Scavenging Activity Against DPPH IC50
# Experimental: DPPH free radical-scavenging properties were evaluated using a previously reported method. Test sample (an extract, a fraction or a compound) in 100 μL of dimethyl sulfoxide (DMSO) (blank: 100 μL of DMSO solution) was added to 100 μL of an ethanolic solution of DPPH (60 μM) in the wells of a 96-well microplate. […] After the sample and the reagents had been mixed gently and incubated for 30 min at room temperature, the absorbance (A) at 540 nm was evaluated using a microplate reader (Model Infinite M200 PRO; Tecan, Austria). The free radical-scavenging activity was calculated as a percentage using the equation DPPH free radical-scavenging activity (%) = [1 − (Asample/Ablank)] × 100.(1)
# [3] = target: T1, porcine pancreatic lipase (Sus scrofa, UniProt P00591); test: Pancreatic lipase inhibition assay (p-NPB hydrolysis); assay type: biochemical; conditions: for inhibition at 10 µg/mL: 10 μg/mL; for inhibition at 25 µg/mL: 25 μg/mL; for inhibition at 50 µg/mL: 50 μg/mL
# T1 construct: purchased Sigma-Aldrich (St. Louis, MO, USA) Type II
# T1 sequence (P00591 1-450): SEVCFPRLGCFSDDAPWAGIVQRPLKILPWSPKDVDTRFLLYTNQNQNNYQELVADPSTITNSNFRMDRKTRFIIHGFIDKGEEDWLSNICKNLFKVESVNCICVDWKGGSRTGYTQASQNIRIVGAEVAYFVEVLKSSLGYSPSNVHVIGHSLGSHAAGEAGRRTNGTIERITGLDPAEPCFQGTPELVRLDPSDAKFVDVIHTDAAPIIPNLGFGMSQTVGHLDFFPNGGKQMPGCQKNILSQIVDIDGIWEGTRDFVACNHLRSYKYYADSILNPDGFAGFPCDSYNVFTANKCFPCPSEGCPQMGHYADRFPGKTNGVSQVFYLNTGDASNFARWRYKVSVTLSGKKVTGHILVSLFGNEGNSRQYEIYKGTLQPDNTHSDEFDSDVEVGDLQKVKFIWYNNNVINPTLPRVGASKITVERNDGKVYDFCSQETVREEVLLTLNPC
# Experimental: Pancreatic lipase activity was measured using the method previously reported by Kim et al.. An enzyme buffer was prepared by the addition of 6 μL of porcine pancreatic lipase solution (Sigma-Aldrich, St. Louis, MO, USA) in a buffer (10 mM morpholinepropanesulfonic acid and 1 mM EDTA, pH 6.8) to Tris buffer (169 μL, 100 mM Tris-HCl, and 5 mM CaCl2, pH 7.0). […] The enzymatic reaction mixtures were incubated at 37 °C for 35 min. Pancreatic lipase activity was determined by measuring the hydrolysis of p-NPB to p-nitrophenol, with absorption being recorded at 405 nm using a microplate reader (Model Infinite M200 PRO; Tecan, Austria). Inhibition of lipase activity was expressed in terms of the percentage reduction in absorbance when porcine pancreatic lipase was incubated with the test compounds, and calculated using the following Equation (4) Inhibition (%) = 100 − [(B − b)/(A − a) × 100](4) where A is the lipase activity without inhibitor, a is the negative control without inhibitor, B is the lipase activity with inhibitor, and b is the negative control with inhibitor. The results are expressed as an average (n = 4).
# [4] = tested on: microphthalmia-associated transcription factor, tyrosinase, and tyrosinase-related proteins; parameters: method as in PMID 30146944; conditions: compound isolated from stem extract of Aurea helianthus; cited from earlier work
# [5] = tested on: human melanocyte tyrosinase; parameters: method as in PMID 16442796; conditions: at 100 μM; cited from earlier work
# [6] = target: tyrosinase; parameters: method as in PMID 12720364, doi:10.1021/jf980226+; conditions: compound isolated from cumin; cited from earlier work
# [7] = target: tyrosinase; parameters: method as in doi:10.1007/s10600-014-1030-9; conditions: compound isolated from pollen of Calendula officinalis; cited from earlier work
# [8] = tested on: tyrosinase; test: Tyrosinase inhibition assay (L-DOPA oxidation); assay type: biochemical; conditions: at 100 μg/mL
# Experimental: The tyrosinase inhibition assay was performed using a modification of the method reported by Nerya et al.. A portion of a sample (20 μL) in DMSO (100 μg/mL) was mixed with 50 μL of 0.1 M potassium phosphate buffer (pH 6.8), to which was added 30 μL of 33 unit/mL tyrosinase and 100 μL of 12 mM L-3,4-dihydroxyphenylalanine (L-DOPA). The solution was mixed gently and the initial absorbance (Ainitial) was recorded at 492 nm using a microplate reader. The reaction mixture was then incubated at 37 °C for 4 min and thereafter the final absorbance (Afinal) was measured at 492 nm. Kojic acid was used as the reference drug. The tyrosinase inhibition activity was calculated as a percentage using the Equation (3) Tyrosinase inhibition activity (%) = [1 − (Afinal/Ainitial)] × 100(3)
Compound,Radical Scavenging Activity Against ABTS IC50 [1] [µg/mL],IC50 [1] [µM],Radical-Scavenging Activity Against DPPH IC50 [2] [µg/mL],IC50 [2] [µM],inhibition at 10 µg/mL ([3]; Table S5) [%],inhibition at 25 µg/mL ([3]; Table S5) [%],inhibition at 50 µg/mL ([3]; Table S5) [%],"inhibition at 100 µg/mL ([3]; 100 μg/mL, Table S5) [%]",ABTS Radical Scavenging (%) ([1]; 5 μg/mL),ABTS Radical Scavenging (%) ([1]; 25 μg/mL),ABTS Radical Scavenging (%) ([1]; 50 μg/mL),DPPH Radical Scavenging (%) ([2]; 1 μg/mL),DPPH Radical Scavenging (%) ([2]; 2 μg/mL),DPPH Radical Scavenging (%) ([2]; 5 μg/mL),DPPH Radical Scavenging (%) ([2]; 10 μg/mL),DPPH Radical Scavenging (%) ([2]; 25 μg/mL),DPPH Radical Scavenging (%) ([2]; 50 μg/mL),DPPH Radical Scavenging (%) ([2]; 100 μg/mL),DPPH Radical Scavenging (%) ([2]; 250 μg/mL),DPPH Radical Scavenging (%) ([2]; 500 μg/mL),further results
"COc1cc(/C=C/C(=O)NCCc2ccc(O)cc2)ccc1O [Compound 3, N-trans-feruloyltyramine]",8.19,26.1,4.67,14.9,14.76 ± 0.01,15.87 ± 0.02,16.96 ± 0.02,17.28 ± 0.02,44.18 ± 2.64,78.71 ± 0.06,82.19 ± 1.38,0.86 ± 2.12,14.90 ± 1.63,54.29 ±0.30,63.25 ± 0.83,70.53 ± 1.74,78.51 ± 0.06,93.65 ± 1.70,95.51 ± 0.10,97.23 ± 0.33,"effect on microphthalmia-associated transcription factor, tyrosinase, and tyrosinase-related proteins [4]: downregulate; inhibition of human melanocyte tyrosinase [5]: 49 ± 4%"
"O=Cc1ccc(O)cc1 [Compound 2, p-hydroxybenzaldehyde]",–,–,–,–,15.07 ± 0.01,36.64 ± 0.02,42.68 ± 0.01,52.6,2.03 ± 0.00,3.97 ± 0.43,8.71 ± 0.21,2.93 ± 2.39,2.73 ± 2.15,3.58 ± 1.79,4.43 ± 0.36,3.61 ± 1.11,3.78 ± 1.40,3.89 ±2.50,7.28 ± 0.80,8.66 ± 0.30,IC50 [6]: 820 µM; type of tyrosinase inhibition [6]: non-competitive; IC50 [3]: 710 µM
"CCCCCCCCCCC[C@@H](C[C@@H]1OC(=O)[C@H]1CCCCCC)OC(=O)[C@H](CC(C)C)NC=O [Orlistat, orlistat, reference compound]",–,–,–,–,–,–,–,–,–,–,–,–,–,–,–,–,–,–,–,–,"inhibition at 0.1 µg/mL ([3]; 0.10 μg/mL, Table S5): 22.98 ± 0.01%; inhibition at 0.25 µg/mL ([3]; 0.25 μg/mL, Table S5): 27.63 ± 0.01%; inhibition at 0.5 µg/mL ([3]; 0.50 μg/mL, Table S5): 51.17 ± 0.01%; inhibition at 1 µg/mL ([3]; 1.00 μg/mL, Table S5): 54.53 ± 0.02%; inhibition at 100 µg/mL ([3]; at 100 μg/mL): 67.8%"
O=c1cc(CO)occ1O [Kojic acid],–,–,–,–,–,–,–,–,–,–,–,–,–,–,–,–,–,–,–,–,Inhibition of L-DOPA Oxidation (%) [8]: 98.6 ± 0.4 ^2%

# The next lines start with results.
Radical Scavenging Activity Against ABTS IC50 [1] [µg/mL],IC50 [1] [µM],Radical-Scavenging Activity Against DPPH IC50 [2] [µg/mL],IC50 [2] [µM],inhibition at 10 µg/mL ([3]; Table S5) [%],inhibition at 25 µg/mL ([3]; Table S5) [%],inhibition at 50 µg/mL ([3]; Table S5) [%],"inhibition at 100 µg/mL ([3]; 100 μg/mL, Table S5) [%]",Compound,ABTS Radical Scavenging (%) ([1]; 5 μg/mL),ABTS Radical Scavenging (%) ([1]; 25 μg/mL),ABTS Radical Scavenging (%) ([1]; 50 μg/mL),DPPH Radical Scavenging (%) ([2]; 1 μg/mL),DPPH Radical Scavenging (%) ([2]; 2 μg/mL),DPPH Radical Scavenging (%) ([2]; 5 μg/mL),DPPH Radical Scavenging (%) ([2]; 10 μg/mL),DPPH Radical Scavenging (%) ([2]; 25 μg/mL),DPPH Radical Scavenging (%) ([2]; 50 μg/mL),DPPH Radical Scavenging (%) ([2]; 100 μg/mL),DPPH Radical Scavenging (%) ([2]; 250 μg/mL),DPPH Radical Scavenging (%) ([2]; 500 μg/mL),further results
3.50,19.9,1.17,6.64,–,–,–,–,"O=C1O[C@H]([C@@H](O)CO)C(O)=C1O [L-Ascorbic acid, reference compound]",70.41 ±0.28,99.75 ± 0.06,99.77 ± 0.08,45.09 ± 1.40,87.36 ± 2.24,97.41 ± 0.46,98.01 ± 0.07,97.50 ± 0.53,97.28 ± 0.27,97.03 ± 0.26,98.14 ± 0.15,–,Radical-Scavenging Activity Against ABTS (%) ([1]; at 100 μg/mL): 99.5 ± 0.3 ^1%; Radical-Scavenging Activity Against DPPH (%) ([2]; at 100 μg/mL): 98.5 ± 0.2 ^1%
16.37,30.1,9.53,17.5,0.73 ± 0.01,21.17 ± 0.01,37.95 ± 0.02,41.11 ± 0.01,"COc1cc(/C=C/C(=O)O[C@@H]2C[C@@](OC(=O)/C=C/c3ccc(O)c(OC)c3)(C(=O)O)C[C@@H](O)[C@@H]2O)ccc1O [Compound 1, 1,3-di-O-trans-feruloyl-(−)-quinic acid]",27.97 ± 4.11,66.31 ± 1.84,66.38 ± 1.47,11.87 ± 0.82,24.91 ± 0.78,38.70 ± 2.24,51.54 ± 1.30,82.94 ± 0.56,85.92 ± 1.27,89.88 ± 1.25,100.78 ± 1.46,101.99 ± 0.37,"IC50 [3]: 242 µM; IC50, activity of tyrosinase against diphenolase [7]: 134.4 ± 4.8 µg/mL; IC50, activity of tyrosinase against monophenolase [7]: 44.6 ± 1.5 µg/mL"
